13 compounds from patent US10036048B1, “Process for obtaining a naphthoquinone derivative from Streptomyces sp” (KING SAUD UNIVERSITY, priority 2017, dated 2018) can be followed below.

≈ marks a conversion by molar mass, not a printed value.

Data set [1] concerns Streptomyces sp. isolate ERINLG-201. As to the kind of experiment: Antibiotic sensitivity of the isolate. The class given is cell-based. As for the experimental part: (ERINLG-201). The Streptomyces sp. isolate ERINLG-201 was recovered from Kodanad forest, (Southern Western Ghats) Tamil Nadu, India. The strain was Gram-positive filamentous bacterium. The culture characteristics of the new isolate were observed after 7, 14 and 21 days of incubation on different media. The color of the substrate mycelia was white. […] The temperature for growth ranged from 25 to 37° C. with optimum of 30° C. and the pH range was 6-12 with normal pH of 7. Utilization of various carbon sources by ERINLG-201 indicated a wide pattern of carbon source assimilation. […] The partial 16S rRNA gene sequences of isolate ERINLG-201 have been deposited in the GenBank database under accession number KC820651.

The subject of another data set is Klebsiella pneumoniae. As to the kind of experiment: Minimum inhibitory concentration (MIC), broth dilution. The conditions noted are these: 24 h, read-out: Minimum Inhibitory Concentration (MIC). Background: In broth dilution the organism is exposed to a series of concentrations in liquid medium.
For data set [2], the system named is Staphylococcus aureus (MRSA). As to the kind of experiment: Minimum inhibitory concentration (MIC), clinical isolate. The conditions noted are these: 24 h, read-out: Minimum Inhibitory Concentration (MIC).
Another data set concerns Malassezia pachydermatis. As to the kind of experiment: Minimum inhibitory concentration (MIC), fungi. The conditions noted are these: read-out: Minimum Inhibitory Concentration (MIC).
The test system of a further data set is Proteus vulgaris. Nature of the data set: Minimum inhibitory concentration (MIC), broth dilution. The settings on record: 24 h, read-out: Minimum Inhibitory Concentration (MIC).
Data set [3] deals with Escherichia coli (ESBL-3904). Nature of the data set: Minimum inhibitory concentration (MIC), clinical isolate. The settings on record: 24 h, read-out: Minimum Inhibitory Concentration (MIC).
The test system of data set [4] is Kiebsiella pneumoniae (ESBL-75799). The description is as above. The settings on record: 24 h, read-out: Minimum Inhibitory Concentration (MIC).
A further data set concerns Bacillus subtilis. As to the kind of experiment: Minimum inhibitory concentration (MIC), broth dilution. The settings on record: 24 h, read-out: Minimum Inhibitory Concentration (MIC).
Data set [5] relates to Staphylococcus epidermidis. The data set is described as above. The settings on record: 24 h, read-out: Minimum Inhibitory Concentration (MIC).
For a further data set, the system named is Salmonella typhimurium. The description is as above. The settings on record: Salmonella enterica, 24 h, read-out: Minimum Inhibitory Concentration (MIC).
The test system of another data set is Pseudomonas aeruginosa. The description is as above. The conditions noted are these: 24 h, read-out: Minimum Inhibitory Concentration (MIC).
For the next data set, the system named is Salmonella paratyphi-B. Described as above. The conditions noted are these: 24 h at 37° C. The data set is classed as cell-based.
The test system of another data set is Candida albicans. As to the kind of experiment: Minimum inhibitory concentration (MIC), fungi. The settings on record: read-out: Minimum Inhibitory Concentration (MIC).
Data set [6] has as its system Escherichia coli (ESBL-3984). As to the kind of experiment: Minimum inhibitory concentration (MIC), clinical isolate. The settings on record: 24 h, read-out: Minimum Inhibitory Concentration (MIC).
The next data set relates to Enterobacter aerogenes. As to the kind of experiment: Minimum inhibitory concentration (MIC), broth dilution. The settings on record: Klebsiella aerogenes, 24 h, read-out: Minimum Inhibitory Concentration (MIC).
The test system of data set [7] is A549 lung adenocarcinoma cancer cell line. Nature of the data set: Cytotoxic activity (MTT, absorbance at 540 nm). The data set is classed as cell-based, human. On the procedure: A549 lung adenocarcinoma cancer cell line was obtained from the National Institute of Cell Sciences, Pune. A549 cell line was maintained in complete tissue culture medium Dulbecco's Modified Eagle's Medium with 10% Fetal Bovine Serum and 2 mM L-Glutamine, along with antibiotics (about 100 International Unit/mL of penicillin, 100 μg/mL of streptomycin) with the pH adjusted to 7.2. The cytotoxicity was determined according to the method of Balachandran et al., (2013) with some changes. Cells (5000 cells/well) were seeded in 96 well plates containing medium with different concentrations such as 100, 80, 60, 40, 20, and 10 μg/mL. The cells were cultivated at 37° C. with 5% CO2 and 95% air in 100% relative humidity. After various durations of cultivation, the solution in the medium was removed. An aliquot of 100 μL of medium containing 1 mg/mL of 3-(4,5-dimethylthiazol-2-yl)-2,5-diphenyl-tetrazolium bromide was loaded in the plate. The cells were cultured for 4 h and then the solution in the medium was removed. An aliquot of 100 μL of DMSO was added to the plate, which was shaken until the crystals were dissolved. The cytotoxicity against cancer cells was determined by measuring the absorbance of the converted dye at 540 nm in an Enzyme linked immune sorbant assay (ELISA) reader. Cytotoxicity of each sample was expressed as the half maximal inhibitory concentration (IC50) value. The IC50 value is the concentration of test sample that causes 50% inhibition of cell growth, averaged from three replicate experiments.

Data set [8] has as its system Klebsiella pneumoniae (ESBL-3894). As to the kind of experiment: Minimum inhibitory concentration (MIC), clinical isolate. The settings on record: 24 h, read-out: Minimum Inhibitory Concentration (MIC).
The subject of another data set is Micrococcus luteus. As to the kind of experiment: Minimum inhibitory concentration (MIC), broth dilution. The settings on record: 24 h, read-out: Minimum Inhibitory Concentration (MIC).
The next data set relates to Staphylococcus aureus. The description is as above. The conditions noted are these: 24 h, read-out: Minimum Inhibitory Concentration (MIC).
Data set [9] relates to Klebsiella pneumoniae (ESBL-3971). As to the kind of experiment: Minimum inhibitory concentration (MIC), clinical isolate. The settings on record: 24 h, read-out: Minimum Inhibitory Concentration (MIC).
Data set [10] has as its system Klebsiella pneumoniae (ESBL-3967). Described as above. The conditions noted are these: 24 h, read-out: Minimum Inhibitory Concentration (MIC).
The subject of the next data set is Shigella flexneri. As to the kind of experiment: Minimum inhibitory concentration (MIC), broth dilution. The settings on record: 24 h, read-out: Minimum Inhibitory Concentration (MIC).

On to `O=C(O)c1cn(C2CC2)c2cc(N3CCNCC3)c(F)cc2c1=O` [ciprofloxacin], for which the “sensitivity of ERINLG-201 towards antibiotic” value in [1] is recorded as “sensitivity”.

For the compound `CN1C(=O)N2CC(C)(OC3=C2C(=O)c2ccccc2C3=O)c2ccccc21` (stereo not drawn) [C-5, Bluemomycin], the MIC in the data set with Klebsiella pneumoniae amounted to 6.25 µg/mL (≈ 17.3 µM); in [2], 25 µg/mL (≈ 69.4 µM); with Malassezia pachydermatis, 50 µg/mL (≈ 139 µM); in the data set with Proteus vulgaris it was 100 µg/mL (≈ 277 µM); in data set [3] it was 25 µg/mL (≈ 69.4 µM); in data set [4] it was 12.5 µg/mL (≈ 34.7 µM). Besides, the MIC in the data set on Bacillus subtilis turned out to be 50 µg/mL (≈ 139 µM); in data set [5], 50 µg/mL (≈ 139 µM); with Salmonella typhimurium it was 12.5 µg/mL (≈ 34.7 µM); with Pseudomonas aeruginosa, 12.5 µg/mL (≈ 34.7 µM); against Salmonella paratyphi-B, 25 µg/mL (≈ 69.4 µM); with Candida albicans, 50 µg/mL (≈ 139 µM). For the same compound, the MIC was 12.5 µg/mL (≈ 34.7 µM) in data set [6]; 12.5 µg/mL (≈ 34.7 µM) in the data set with Enterobacter aerogenes; 12.5 µg/mL (≈ 34.7 µM) in [8]; 25 µg/mL (≈ 69.4 µM) in the data set with Micrococcus luteus; more than 100 µg/mL with Staphylococcus aureus; more than 100 µg/mL in data set [9]. In addition, the figures for the MIC (in data set [10]; in the data set with Shigella flexneri) were 6.25 µg/mL (≈ 17.3 µM) and 12.5 µg/mL (≈ 34.7 µM), respectively. For the same compound, the “% (cytotoxicity)” value is given as 10.5% in data set [7] (5 μg/mL); 26.3% in [7] (10 μg/mL); 51.7% in [7] (20 μg/mL); 60.2% in data set [7] (40 μg/mL); 68.6% in data set [7] (60 μg/mL); 78.6% in data set [7] (80 μg/mL). Besides, the “% (cytotoxicity)” value in [7] (100 μg/mL) is 88.7%.

For `O=C(Cc1cccs1)N[C@@H]1C(=O)N2C(C(=O)[O-])=C(C[n+]3ccccc3)CS[C@H]12` [cephaloridine], the “sensitivity of ERINLG-201 towards antibiotic” value in data set [1] is “sensitivity”.

gentamicin: the “sensitivity of ERINLG-201 towards antibiotic” value in [1] was “sensitivity”.

On to `NCC[C@H](O)C(=O)N[C@@H]1C[C@H](N)[C@@H](O[C@H]2O[C@H](CN)[C@@H](O)[C@H](O)[C@H]2O)[C@H](O)[C@H]1O[C@H]1O[C@H](CO)[C@@H](O)[C@H](N)[C@H]1O` [amikacin], for which the “sensitivity of ERINLG-201 towards antibiotic” value in data set [1] is recorded as “sensitivity”.

For `CC[C@H]1OC(=O)[C@H](C)[C@@H](O[C@H]2C[C@@](C)(OC)[C@@H](O)[C@H](C)O2)[C@H](C)[C@@H](O[C@@H]2O[C@H](C)C[C@H](N(C)C)[C@H]2O)[C@](C)(O)C[C@@H](C)C(=O)[C@H](C)[C@@H](O)[C@]1(C)O` [erythromycin], the “sensitivity of ERINLG-201 towards antibiotic” value in [1] is recorded as “sensitivity”.

In the case of `CC1(C)S[C@@H]2[C@H](NC(=O)[C@H](N)c3ccccc3)C(=O)N2[C@H]1C(=O)O` [ampicillin], in data set [1], the “sensitivity of ERINLG-201 towards antibiotic” value is “sensitivity”.

Regarding `CC(=O)N1CCN(c2ccc(OCC3COC(Cn4ccnc4)(c4ccc(Cl)cc4Cl)O3)cc2)CC1` (stereo not drawn) [Ketoconazole], the MIC with Malassezia pachydermatis and with Candida albicans was 25 µg/mL (≈ 47 µM) throughout.

vencomycin: the “sensitivity of ERINLG-201 towards antibiotic” value in [1] was “sensitivity”.

Regarding `CO[C@H]1/C=C/O[C@@]2(C)Oc3c(C)c(O)c4c(O)c(cc(O)c4c3C2=O)NC(=O)/C(C)=C\C=C\[C@H](C)[C@H](O)[C@@H](C)[C@@H](O)[C@@H](C)[C@H](OC(C)=O)[C@@H]1C` [rifamycin], in [1], the “sensitivity of ERINLG-201 towards antibiotic” value is reported as “sensitivity”.

Regarding `[H]/N=C(/N)N[C@H]1[C@H](O)[C@@H](O)[C@H](O[C@@H]2O[C@@H](C)[C@](O)(C=O)[C@H]2O[C@@H]2O[C@@H](CO)[C@H](O)[C@@H](O)[C@@H]2NC)[C@@H](N/C(N)=N\[H])[C@@H]1O` [Streptomycin], the MIC is 25 µg/mL (≈ 43 µM) in the data set with Klebsiella pneumoniae; 6.25 µg/mL (≈ 10.7 µM) in data set [2]; 6.25 µg/mL (≈ 10.7 µM) in the data set with Proteus vulgaris; 25 µg/mL (≈ 43 µM) in data set [3]; 25 µg/mL (≈ 43 µM) in data set [4]; 25 µg/mL (≈ 43 µM) with Bacillus subtilis. The MIC in [5] amounted to 25 µg/mL (≈ 43 µM); in the data set on Salmonella typhimurium, 25 µg/mL (≈ 43 µM); with Pseudomonas aeruginosa, 25 µg/mL (≈ 43 µM); against Salmonella paratyphi-B, 6.25 µg/mL (≈ 10.7 µM); in [6], 25 µg/mL (≈ 43 µM); with Enterobacter aerogenes it was 25 µg/mL (≈ 43 µM). In addition, the MIC in data set [8] was 6.25 µg/mL (≈ 10.7 µM); in the data set with Micrococcus luteus, 6.25 µg/mL (≈ 10.7 µM); in the data set with Staphylococcus aureus, 6.25 µg/mL (≈ 10.7 µM); in data set [9] it was 6.25 µg/mL (≈ 10.7 µM); in [10], 25 µg/mL (≈ 43 µM); with Shigella flexneri, 6.25 µg/mL (≈ 10.7 µM).

For the compound `CCn1cc(C(=O)O)c(=O)c2cc(F)c(N3CCNCC3)cc21` [norfloxacin], in [1], the “sensitivity of ERINLG-201 towards antibiotic” value was “sensitivity”.

With penicillin, in data set [1], the “sensitivity of ERINLG-201 towards antibiotic” value was “sensitivity”.
